Laboratory results: US8796474

Settings: from CC[C@@H](O)C(C)=C=C[C@@H](OCc1ccccc1)[C@H](C)CC(C)=C=C[C@H](OCc1ccccc1)[C@@H](C)C(=O)O; ester bond; 2,4,6-trichlorobenzoyl chloride / TEA / DMAP (Yamaguchi); toluene; 3.18 mM; 80.0 °C; 8.0 h

Q: Which ring closure, yield of all isomers does the source give for `CC[C@H]1OC(=O)[C@H](C)[C@@H](OCc2ccccc2)C=C=C(C)C[C@@H](C)[C@H](OCc2ccccc2)C=C=C1C` here?
A: 64%
